# Publication PMC12654037, “Norditerpene Natural Products from Subterranean Fungi with Anti-Parasitic Activity” (Microorganisms, 2025)
# Entries after “also recorded” stand apart in the source; their conditions may differ.
# Assays:
# C. parvum oocysts = experiment: C. parvum oocyst excystation assay; assay type: cell-based, Cryptosporidium parvum; conditions: 7.5 µM, 1-hour incubation
# Experimental: (§1) C. parvum excystation and invasion assays: Oocyst excystation rates in the presence of compounds were determined as previously described. The C. parvum invasion inhibition assays were conducted in two formats. In the first format, described previously, HCT-8 cells were seeded on glass slides (CELLTREAT Scientific Product, Pepperell, MA, USA) and allowed to grow to confluence. Oidiolactone A was added to the cells for one hour. TrtE and DMSO were run in parallel as positive and negative controls, respectively. The cell monolayers were then infected with 1.2 × 10^6 wild-type C. parvum oocysts. After 3 h of incubation at 37 °C, the slides were washed five times with 111 mM D-galactose, fixed with 4% paraformaldehyde, and permeabilized with 0.25% Triton-X. C. parvum sporozoites were detected with rabbit anti-gp40 [39] and Alexa Fluor 594 goat anti-rabbit antibodies. The HCT-8 cell nuclei were stained with 0.09 mM Hoechst. Slides were coded to enable unbiased counting, and sporozoites from at least 10 randomly selected fields were counted in each sample at 100× magnification (Zeiss® Axioscope 5). The percentage of invaded parasites was determined using the following equation: % Invaded parasites = [parasitescompound/parasitesDMSO] × 100. This experiment was run in duplicate with two biological replicates.
# [1] = Serum biochemical analysis of infected and treated IFNγ −/− mice; assay type: in vivo, C57BL/6 IFNγ −/− mice
# Experimental: (§2) Inhibition of C. parvum infection in IFN-gamma knock-out (IFNγ −/−) mice: Twelve female C57BL/6 IFNγ −/− mice (4 weeks old) from the Jackson Laboratory were housed in a controlled environment with a 12 h light/dark cycle and access to food and water ad libitum. Cp-NLuc oocysts were isolated from infected mouse feces and purified using a sodium chloride density gradient. Mice were inoculated via oral gavage with a suspension of 10^4 oocysts in 50 µL sterile PBS. On days 5 and 6 post-infection, mice were treated with 4 mg/kg of oidiolactone A or DMSO vehicle control every 12 h for a total of four doses (6 mice per treatment group). Fecal samples were collected daily and stored at −20 °C until analysis. Feces were homogenized in a lysis buffer solution, centrifuged, and the supernatant was incubated with Nano-Glo® substrate in a 96-well plate, as previously described. Luminescence was measured in a microplate reader immediately after substrate addition. Oocyst shedding, measured in RLUs/gram of feces, was plotted over time, and the area under the curve was determined for each mouse. Mice were sacrificed 14 days post-infection, and serum was collected for biochemical analysis. Biochemical analyses were performed using the Beckman Coulter AU480 automated analyzer (Beckman Coulter, Brea, CA, USA) at the Clinical Pathology Laboratory, Veterinary Medical Center, University of Minnesota.
# P. falciparum line Dd2 = experiment: Plasmodium falciparum growth inhibition assay (SYBR Green I), Dd2
# Experimental: Plasmodium falciparum growth inhibition assay: Antiplasmodial EC50 results were determined using a fluorescence-based SYBR Green I assay performed using asynchronous cultures [30, 35]. […] Plates were subsequently frozen at −80 °C to facilitate lysis. […] Relative fluorescence units (RFUs) were normalized based on chloroquine-treated and no treatment controls. Serial dilutions of compounds were prepared in RPMI with final assay conditions of ≤0.2% DMSO. Each assay was conducted in triplicate with three biological replicates.
# C. parvum sporozoites = experiment: C. parvum invasion inhibition assay; assay type: cell-based, Cryptosporidium parvum; conditions: 7.5 µM, 3 h infection, luciferase and IFA formats
# Experimental: as §1, with “replicates. […]” for “replicates.”
# T. gondii = T. gondii growth inhibition assay (TgRH-Luc:GFP-infected HFF cells); assay type: cell-based; conditions: Toxoplasma gondii, 10 µM to 156 nM, Figure 2E
# Experimental: T. gondii growth inhibition assays: The T. gondii inhibition assay was described previously. Briefly, HFF cells were seeded onto white-sided, clear-bottom 96 well plates, grown to confluence, and then 5000 TgRH-Luc:GFP parasites were added to each well. At 24 hpi, compounds or DMSO were added. The growth of the parasites was determined by relative luminescence at 48 hpi using Promega Bright-Glo (Promega, Madison, WI, USA) substrate. Plates were read, and the percent inhibition of parasite growth was calculated as described above. Determination of -static versus -cidal activity was conducted as indicated above, with parasite growth quantified after 48 h of infection. Each sample was run in triplicate, and each experiment was repeated three times.
# C. parvum = experiment: Inhibition of C. parvum infection in IFNγ −/− mice; assay type: in vivo, C57BL/6 IFNγ −/− mice; conditions: 4 mg/kg oral gavage every 12 h, four doses, days 5 and 6 post-infection, AUC of RLUs/gram feces
# Experimental: as §2
# Cp-NLuc = experiment: C. parvum -static versus -cidal washout assay; assay type: cell-based, Cryptosporidium parvum
# Experimental: To determine -static versus -cidal activity, the infection assay was conducted as described, but infected cells were treated with compounds for 30 min up to 24 h. The compounds were removed after the designated times, and infection was quantified at 72 h post-infection. To determine the activity of the compounds against asexual and sexual stages of the parasite, compounds were added for 4 h windows at times corresponding to asexual or sexual development. Parasite proliferation was then determined at 72 h post-infection. For all assays, each sample was run in triplicate, and three biological replicates were performed.
structure (smiles),measurement,setting,value
"CO[C@H]1OC(=O)C=C2[C@@]13O[C@@H]3[C@H]1OC(=O)[C@@]3(C)CCC[C@@]2(C)[C@@H]13 [compound 1, oidiolactone A]",effect on oocyst excystation,C. parvum oocysts,no effect
same,"signs of acute toxicity (liver, renal, metabolic, cardiac functions, protein status, electrolytes vs control)","[1]; 4 mg/kg x 4 doses, serum day 14",no statistically significant differences
same,"LIH (sum of lipemia, icterus, and hemolysis scores per mouse)","[1]; serum, mean ± SD",1.5 ± 0.71
same,ALP,"[1]; serum, mean ± SD of two mice",182.00 ± 15.56 U/L
same,ALT,"[1]; serum, mean ± SD of two mice",37.50 ± 6.36 U/L
same,AST,"[1]; serum, mean ± SD of two mice",229.50 ± 31.82 U/L
same,Alb,"[1]; serum, mean ± SD of two mice",3.30 ± 0.14 g/dL
same,Amy,"[1]; serum, mean ± SD of two mice",456.00 ± 80.61 U/L
same,An Gap (calc.),"[1]; serum, mean ± SD of two mice",27.00 ± 1.41
same,BUN,"[1]; serum, mean ± SD of two mice",21.50 ± 4.95 mg/dL
same,CK,"[1]; serum, mean ± SD of two mice",1618.00 ± 376.18 U/L
same,Ca,"[1]; serum, mean ± SD of two mice",10.55 ± 0.07 mg/dL
same,Chol,"[1]; serum, mean ± SD of two mice",92.50 ± 7.78 mg/dL
same,Creat,"[1]; serum, mean ± SD of two mice",0.00 ± 0.00 mg/dL
same,GGT,"[1]; serum, mean ± SD of two mice",0.00 ± 0.00 U/L
same,Glob (calc.),"[1]; serum, mean ± SD of two mice",1.55 ± 0.07 g/dL
same,Gluc,"[1]; serum, mean ± SD of two mice",280.00 ± 15.56 mg/dL
same,HCO3,"[1]; serum, mean ± SD of two mice",14.85 ± 1.48 mmol/L
same,K,"[1]; serum, mean ± SD of two mice",5.15 ± 0.07 mmol/L
same,Mg,"[1]; serum, mean ± SD of two mice",2.75 ± 0.07 mg/dL
same,Na,"[1]; serum, mean ± SD of two mice",149.50 ± 0.71 mmol/L
same,Osmol (calc.),"[1]; serum, mean ± SD of two mice",310.00 ± 1.41
same,Phos,"[1]; serum, mean ± SD of two mice",10.25 ± 0.35 mg/dL
same,T. Bili,"[1]; serum, mean ± SD of two mice",0.10 ± 0.00 mg/dL
same,TP,"[1]; serum, mean ± SD of two mice",4.85 ± 0.21 g/dL
same,SI: selectivity index=EC50 HepG2/ EC50 compound,P. falciparum line Dd2,> 11
same,EC50,"P. falciparum line Dd2; Plasmodium falciparum, DD2, 72 h, read-out: EC50 Dd2 (M)",2.26e-06 ± 4.6e-07 M
same,effect on parasite invasion,C. parvum sporozoites,no effect; also recorded: did not exhibit any effect
same,EC50,T. gondii,1630 nM
same,reduction in C. parvum oocyst shedding,C. parvum,70%
same,EC90,Cp-NLuc; Cryptosporidium parvum,7500 nM
same,treatment time after which C. parvum did not recover (killing time),"Cp-NLuc; at EC90 7.5 µM, compound washed out, read 72 h post-infection",8 to 12 h
